# Read-outs that look alike come from different tables or passages of the source.
# Key:
# hypertensive disorders = assay: Treatment of hypertensive disorders in rats; format: in vivo, rat; conditions: aqueous suspension, e.g. 0.5 to 2.5 millimolar
# Protocol: (§1) Dimethyl sulphite and diethyl sulphite are successively prepared by esterifying 2 moles of each respective alkanol with 1 mole of thionyl chloride. The diethyl ester is a colourless liquid (b.p. 159°) with an aromatic odour, believed to have the following formula: [drawing 17] A composition based on this compound, e.g. an aqueous suspension having a concentration in the range from 0.5 to 2.5 millimolar, is effective in the treatment of thrombotic and hypertensive disorders in rats. It is theorized to be activated in vivo by virtue of its conversion to sulphite ions.
# platelet aggregation = assay: Ex vivo inhibition of platelet aggregation after injection into a rabbit; conditions: 219 mg injected, 3.06 kg rabbit, about 10 millimolar in blood, 10 minutes
# Protocol: (§2) In order to evaluate the effectiveness of diethyl sulphite as an anti-platelet aggregatory agent the following experiments are carried out.
# (B) Ex vivo A rabbit weighing 3.06 kg is injected with 219 mg of diethyl sulphite to give a concentration of about 10 millimolar diethyl sulphite in the blood. After 10 minutes, a blood sample is withdrawn and the percent inhibition of platelet aggregation, as compared to a blood sample taken before injection, is determined.
# [1] = tested on: platelet aggregation in platelet-rich plasma (PRP); assay: In vitro inhibition of platelet aggregation, method of Born; format: cell-based; conditions: Oryctolagus cuniculus, read-out: IC50 of diethyl sulphite
# Protocol: as §2
# (A) In vitro Platelet-rich plasma (PRP) is prepared from a rabbit and the IC50 value is determined according to the method of Born, "Nature", 194, 927-929 (1962). The IC50 is the estimated concentration of the agent necessary to inhibit 50 percent of the platelet aggregation. The data tabulated below is obtained.
# thrombotic disorders = assay: Treatment of thrombotic disorders in rats; format: in vivo, rat; conditions: aqueous suspension, e.g. 0.5 to 2.5 millimolar
# Protocol: as §1
compound,measurement,setting,value
CCOS(=O)OCC [diethyl sulphite],effectiveness in the treatment of hypertensive disorders,hypertensive disorders,effective
same,percent inhibition of platelet aggregation,platelet aggregation; stimulus: ADP,29%
same,percent inhibition of platelet aggregation,platelet aggregation; stimulus: U-46619,12%
same,percent inhibition of platelet aggregation,platelet aggregation; stimulus: arachidonic acid,0%
same,IC50,"[1]; stimulus: U-46619, rabbit PRP",11 mM
same,IC50,"[1]; stimulus: adenosine diphosphate (ADP), rabbit PRP",35 mM
same,IC50,"[1]; stimulus: arachidonic acid, rabbit PRP",6.25 mM
same,effectiveness in the treatment of thrombotic disorders,thrombotic disorders,effective
